Assays:
[1] = test system: green peach aphid (Myzus persicae); assay: Myzus test (MYZUPE spray treatment), Use Example 4; type: in vivo; settings: 144 h, after 6 days; for pest or weed control at 100 g/ha: read-out: activity in %
Protocol: Solvents: 78 parts by weight of acetone • • 1.5 parts by weight of dimethylformamide
Emulsifier: 0.5 part by weight of alkylaryl polyglycol ether
An appropriate preparation of active compound is prepared by mixing 1 part by weight of active compound with the stated amounts of solvents and emulsifier and diluting the concentrate with emulsifier-containing water to the desired concentration.
Leaf discs of Chinese cabbage (Brassica pekinensis) infested by all stages of the green peach aphid (Myzus persicae) are sprayed with a preparation of active compound at the desired concentration.
After 6 days, the activity in % is ascertained. Here, 100% means that all of the aphids have been killed; 0% means that no aphids have been killed.

[2] = test system: larvae of the mustard beetle (Phaedon cochleariae); assay: Phaedon test (PHAECO spray treatment); type: in vivo; settings: 168 h, after 7 days; for pest or weed control at 100 g/ha: read-out: activity in %
In short: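 Mortality of mustard beetle larvae, expressed as percent killed (100% all, 0% none), assessed 7 days after spraying. Spray liquor made from compound in acetone plus dimethylformamide with alkylaryl polyglycol ether, diluted in emulsifier-containing water to the desired concentration.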

[3] = test system: caterpillars of the armyworm (Spodoptera frugiperda); assay: Spodoptera frugiperda test (SPODFR spray treatment); type: in vivo; settings: 168 h, 100 g/ha, after 7 days, read-out: activity in %
In short: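 Percent caterpillar mortality read 7 days after infestation (0% none killed, 100% all killed). Treatment was a spray of the acetone/DMF/emulsifier formulation, water-diluted to test concentration, onto Zea mays leaf discs, allowed to dry before larvae were added.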

[4] = log P determination by HPLC on reversed-phase columns (EEC Directive 79/831 Annex V.A8); type: physicochemical; settings: pH 2.7
In short: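 Calibration used unbranched alkan-2-ones of 3 to 16 carbons with known log P, values interpolated linearly from retention times between neighbouring standards. Acidic-range LC-MS run at pH 2.7, eluents aqueous and acetonitrile formic acid 0.1%, linear gradient 10% to 95% acetonitrile.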

| SMILES | pest or weed control at 20 g/ha [1] [%] | pest or weed control at 500 g/ha ([2]; 500 g/ha) [%] | pest or weed control at 100 g/ha [3] [%] | chromatographic logP [4] | pest or weed control at 100 g/ha [1] [%] | pest or weed control at 100 g/ha [2] [%] |
| --- | --- | --- | --- | --- | --- | --- |
| CCNC(=O)c1cc(C#N)cc(C)c1NC(=O)c1cc(Cn2cc(C(F)(F)F)nn2)nn1-c1ncccc1Cl [Example 180] | 100 | 100 | 100 | 2.49 | – | – |
| Cc1cc(C#N)cc(C(=O)NC(C)(C)C)c1NC(=O)c1cc(Cn2cc(C(F)(F)F)nn2)nn1-c1ncccc1Cl [Example 182] | – | – | 100 | 2.97 | 100 | 100 |
| Cc1cc(C#N)cc(C(N)=O)c1NC(=O)c1cc(Cn2cc(C(F)(F)F)nn2)nn1-c1ncccc1Cl [Example 184] | 100 | – | 100 | 2.12 | – | 100 |
| Cc1cc(C#N)cc(C(=O)NCC2CC2)c1NC(=O)c1cc(Cn2cc(C(F)(F)F)nn2)nn1-c1ncccc1Cl [Example 185] | – | – | 100 | 2.81 | 90 | 100 |
| CNC(=O)c1cc(Cl)cc(C)c1NC(=O)c1cc(Cn2cc(C(F)(F)F)nn2)nn1-c1ncccc1Cl [Example 187] | – | – | 100 | 2.6 | 100 | 100 |
| CCNC(=O)c1cc(Cl)cc(C)c1NC(=O)c1cc(Cn2cc(C(F)(F)F)nn2)nn1-c1ncccc1Cl [Example 189] | – | – | 100 | 2.9 | 80 | 100 |
| Cc1cc(Cl)cc(C(N)=O)c1NC(=O)c1cc(Cn2cc(C(F)(F)F)nn2)nn1-c1ncccc1Cl [Example 192] | – | – | 100 | 2.44 | 100 | 100 |
| Cc1cc(Cl)cc(C(=O)NC(C)C2CC2)c1NC(=O)c1cc(Cn2cc(C(F)(F)F)nn2)nn1-c1ncccc1Cl (stereo not shown) [Example 193] | – | – | 100 | 3.34 | 100 | 100 |
| CSC[C@H](C)NC(=O)c1cc(Cl)cc(C)c1NC(=O)c1cc(Cn2cc(C(F)(F)F)nn2)nn1-c1ncccc1Cl [Example 194] | – | – | 100 | 3.35 | 100 | 100 |
| Cc1cc(Cl)cc(C(=O)NCC#N)c1NC(=O)c1cc(Cn2cc(C(F)(F)F)nn2)nn1-c1ncccc1Cl [Example 196] | – | – | 100 | 2.61 | 100 | 100 |
| CNC(=O)c1cc(Cl)cc(Cl)c1NC(=O)c1cc(Cn2cc(C(F)(F)F)nn2)nn1-c1ncccc1Cl [Example 197] | – | – | 100 | 2.59 | 90 | 100 |
| CC(C)(C)NC(=O)c1cc(Cl)cc(Cl)c1NC(=O)c1cc(Cn2cc(C(F)(F)F)nn2)nn1-c1ncccc1Cl [Example 201] | – | – | 100 | 3.42 | 100 | 100 |
| NC(=O)c1cc(Cl)cc(Cl)c1NC(=O)c1cc(Cn2cc(C(F)(F)F)nn2)nn1-c1ncccc1Cl [Example 203] | – | – | 100 | 2.43 | 100 | 100 |
| CSC[C@H](C)NC(=O)c1cc(I)cc(C)c1NC(=O)c1cc(Cn2cc(C(F)(F)F)nn2)nn1-c1ncccc1Cl [Example 212] | – | – | 100 | 3.59 | 100 | 100 |
| Cc1cc(I)cc(C(N)=O)c1NC(=O)c1cc(Cn2cc(C(F)(F)F)nn2)nn1-c1ncccc1Cl [Example 213] | – | – | 100 | 2.64 | 100 | 100 |
| Cc1cc(I)cc(C(=O)NCC#N)c1NC(=O)c1cc(Cn2cc(C(F)(F)F)nn2)nn1-c1ncccc1Cl [Example 215] | – | – | 100 | 2.82 | 90 | 100 |

Reference: patent US8536202B2, “Triazole-substituted anthranilamides as pesticides” (Bayer Cropscience AG, priority 2010, dated 2013)
